Data on 17 compounds can be found in patent US7432264B2, “Antimicrobial biaryl compounds” (Isis Pharmaceuticals, Inc., priority 2000, dated 2008).

The test system of one test is S. aureus ATCC 13709. Put plainly: Minimum inhibitory concentration (MIC), S. aureus. The test is classed as cell-based, Staphylococcus aureus. Here is the method:
(§1) Bacterial Strains. The Streptococcus pyogenes strains, Klebsiella pneumoniae, Escherichia coli, Staphylococcus aureus, Enterococcus faecalis used in the antibacterial activity studies ATCC 14289, 49399, 13883, 25922, 13709, 29212, respectively, are obtained from the American Type Culture Collection, Rockville, Md. The strain E. coli imp— is a mutant strain of wild type E. coli with increased outer membrane permeability and was grown in LB broth at 37 °C. S. pyogenes strain is grown in Todd-Hewitt broth. S. aureus is grown in trypticase soy broth, E. faecalis in Todd-Hewitt broth, wild type E. coli and K. pneumoniae, in nutrient broth.
(§2) Determination of Minimum Inhibitory Concentrations (MICs). The assays were carried out in […] volume in duplicate in 96-well clear flat-bottom plates. The bacterial suspension from an overnight culture growth in appropriate medium was added to a solution of test compound in 4% DMSO in water. Final bacterial inoculum was approximately 10^5-10^6 CFU/well. The percent growth of the bacteria in test wells relative to that observed for a well containing no compound was determined by measuring absorbance at 595 nm (A595) after 24 h. […] Both ampicillin and tetracycline is used as antibiotic-positive controls in each screening assay for S. pyogenes, E. coli imp-, E. coli, S. aureus, E. faecalis, K pneumoniae and P. vulgaris. Ciprofloxacin is used as an antibiotic positive control in each screening assay for P. aeruginosa.

A further test concerns E. coli ATCC 25922. Put plainly: Minimum inhibitory concentration (MIC), E. coli. The test is classed as cell-based, Escherichia coli. Here is the method: as §1, §2
For test [1], the system named is E. coli S30 bacterial extract (protein synthesis). The test is classed as biochemical. Particulars: versus 12. Here is the method: Coupled Bacterial Transcription/Translation Assay. The DNA template, pBestLuc™ (Promega), is a plasmid containing a reporter gene for firefly luciferase fused to a strong tac promoter and ribosome binding site. Messenger RNA from 1 μg pBestLuc was transcribed and translated in E. coli S30 bacterial extract in the presence or absence of test compound. Compounds were tested in a black 96 well microtiter plate with an assay volume of 35 μL. Each test well contained: 5 μL test compound, 13 μL S30 premix (Promega), 4 μL 10× complete amino acid mix (1 mM each), 5 μL E. coli S30 extract and 8 μL of […] pBestLuc™. The transcription/translation reaction was incubated for 35 minutes at 37° C. followed by detection of functional luciferase with the addition of 30 μL LucLite™ (Packard). Light output was quantitated on a Packard TopCount.

Where [2] appears, read: Staphylococcus aureus, ATCC13709, 24 h, read-out: MIC (S. aureus).
Setting [3] is: Escherichia coli, ATCC25922, 24 h, read-out: MIC (E. coli).

≈ marks a conversion by molar mass, not a printed value. Like-named read-outs stand apart in the source and are kept apart here.

Turning to `CC(=O)NCC1CN(c2ccc(N3CCOCC3)c(F)c2)C(=O)O1` (centres unmarked), the MIC in the test with S. aureus ATCC 13709 (Staphylococcus aureus, ATCC13709; alone (no serum); read-out: MIC (S. aureus) alone) was 2 mM (≈ 675 µg/mL); in the test with S. aureus ATCC 13709 (Staphylococcus aureus, ATCC13709; with serum; read-out: MIC (S. aureus) +serum) it was 2 to 3 mM (≈ 675 to 1010 µg/mL); in the test with E. coli ATCC 25922 (Escherichia coli, ATCC25922; alone (no serum); read-out: MIC (E. coli) alone) it was 2 to 3 mM (≈ 675 to 1010 µg/mL); with E. coli ATCC 25922 (Escherichia coli, ATCC25922; with serum; read-out: MIC (E. coli) +serum), 3 to 6 mM (≈ 1010 to 2020 µg/mL).
`CN(C)CCCOc1ccc(C(NC(=O)c2ccc(-c3cccc(NC(=O)c4ccc(-c5cccc(F)c5)cc4)c3)o2)C(=O)N2CCNCC2)cc1` (centres unmarked): the MIC in the test with S. aureus ATCC 13709 (setting [2]) lay within 3 to 6 mM (≈ 2110 to 4220 µg/mL); in the test with E. coli ATCC 25922 (setting [3]) it was 6 to 13 mM (≈ 4220 to 9150 µg/mL).
Take `CC(=O)c1ccccc1-c1ccc(C(=O)Nc2cccc(-c3ccc(C(=O)NC(C(=O)N4CCNCC4)c4ccc(OCCCN(C)C)cc4)o3)c2)cc1` (centres unmarked): the MIC with S. aureus ATCC 13709 (setting [2]) was 6 to 13 mM (≈ 4370 to 9460 µg/mL); with E. coli ATCC 25922 (setting [3]), above 100 mM.
For `CN(C)CCCOc1ccc(C(NC(=O)c2ccc(-c3cccc(NC(=O)c4ccc5[nH]c(=O)c(=O)[nH]c5c4)c3)o2)C(N)=O)cc1` (centres unmarked) [Compound 21], in test [1], the “fold less potent than 12” value is around 3 fold.
Consider `CCc1ccc(-c2ccc(C(=O)Nc3cccc(-c4ccc(C(=O)NC(C(=O)N5CCNCC5)c5ccc(OCCCN(C)C)cc5)o4)c3)cc2)cc1` (centres unmarked) [Compound 35], for which the values for the MIC in the test on S. aureus ATCC 13709 (setting [2]) and in the test with E. coli ATCC 25922 (setting [3]) were 6 to 13 mM (≈ 4280 to 9280 µg/mL) and 50 to 100 mM (≈ 35700 to 71400 µg/mL), respectively.
With `CCCc1ccc(-c2ccc(C(=O)Nc3cccc(-c4ccc(C(=O)NC(C(=O)N5CCNCC5)c5ccc(OCCCN(C)C)cc5)o4)c3)cc2)cc1` (centres unmarked) [Compound 36], the MIC in the test with S. aureus ATCC 13709 (setting [2]) is 13 to 25 mM (≈ 9460 to 18200 µg/mL); in the test with E. coli ATCC 25922 (setting [3]) it was above 100 mM.
On the same counts, the results for `CN(C)CCCOc1ccc(C(NC(=O)c2ccc(-c3cccc(NC(=O)c4ccc(-c5ccc(C(C)(C)C)cc5)cc4)c3)o2)C(=O)N2CCNCC2)cc1` (centres unmarked) [Compound 37] are above 100 mM and above 100 mM.
For `Cc1ccccc1-c1ccc(C(=O)Nc2cccc(-c3ccc(C(=O)NC(C(=O)N4CCNCC4)c4ccc(OCCCN(C)C)cc4)o3)c2)cc1` (centres unmarked) [Compound 38], the MIC in the test on S. aureus ATCC 13709 (setting [2]) and in the test on E. coli ATCC 25922 (setting [3]) was 3 to 6 mM (≈ 2100 to 4200 µg/mL) in each case.
As to `Cc1cccc(-c2ccc(C(=O)Nc3cccc(-c4ccc(C(=O)NC(C(=O)N5CCNCC5)c5ccc(OCCCN(C)C)cc5)o4)c3)cc2)c1` (centres unmarked) [Compound 39], the MIC with S. aureus ATCC 13709 (setting [2]) and in the test with E. coli ATCC 25922 (setting [3]) was 13 to 25 mM (≈ 9100 to 17500 µg/mL) each time.
For the compound `CCc1ccccc1-c1ccc(C(=O)Nc2cccc(-c3ccc(C(=O)NC(C(=O)N4CCNCC4)c4ccc(OCCCN(C)C)cc4)o3)c2)cc1` (centres unmarked) [Compound 41], the MIC in the test with S. aureus ATCC 13709 (setting [2]) fell in the range of 3 to 6 mM (≈ 2140 to 4280 µg/mL); with E. coli ATCC 25922 (setting [3]) it was 13 to 25 mM (≈ 9280 to 17800 µg/mL).
In the case of `Cc1cccc(-c2ccc(C(=O)Nc3cccc(-c4ccc(C(=O)NC(C(=O)N5CCNCC5)c5ccc(OCCCN(C)C)cc5)o4)c3)cc2)c1C` (centres unmarked) [Compound 42], the MIC in the test with S. aureus ATCC 13709 (Staphylococcus aureus, ATCC13709, 24 h; read-out: MIC (S. aureus)) is 3 to 6 mM (≈ 2140 to 4280 µg/mL); with E. coli ATCC 25922 (Escherichia coli, ATCC25922, 24 h; read-out: MIC (E. coli)), 13 to 25 mM (≈ 9280 to 17800 µg/mL).
On to `Cc1ccc(C)c(-c2ccc(C(=O)Nc3cccc(-c4ccc(C(=O)NC(C(=O)N5CCNCC5)c5ccc(OCCCN(C)C)cc5)o4)c3)cc2)c1` (centres unmarked) [Compound 43], for which the MIC in the test with S. aureus ATCC 13709 (setting [2]) is 13 to 25 mM (≈ 9280 to 17800 µg/mL); in the test with E. coli ATCC 25922 (setting [3]) it was 25 to 50 mM (≈ 17800 to 35700 µg/mL).
With `Cc1cccc(C)c1-c1ccc(C(=O)Nc2cccc(-c3ccc(C(=O)NC(C(=O)N4CCNCC4)c4ccc(OCCCN(C)C)cc4)o3)c2)cc1` (centres unmarked) [Compound 44], the MIC in the test on S. aureus ATCC 13709 (setting [2]) is 13 to 25 mM (≈ 9280 to 17800 µg/mL); with E. coli ATCC 25922 (setting [3]), 25 to 50 mM (≈ 17800 to 35700 µg/mL).
In the case of `Cc1cc(C)c(-c2ccc(C(=O)Nc3cccc(-c4ccc(C(=O)NC(C(=O)N5CCNCC5)c5ccc(OCCCN(C)C)cc5)o4)c3)cc2)c(C)c1` (centres unmarked) [Compound 45], the figures for the MIC in the test on S. aureus ATCC 13709 (setting [2]) and in the test with E. coli ATCC 25922 (setting [3]) were 13 to 25 mM (≈ 9460 to 18200 µg/mL) and 50 to 100 mM (≈ 36400 to 72800 µg/mL), respectively.
Take `CN(C)CCCOc1ccc(C(NC(=O)c2ccc(-c3cccc(NC(=O)c4ccc(-c5ccccc5Cl)cc4)c3)o2)C(=O)N2CCNCC2)cc1` (centres unmarked) [Compound 47]: the MIC in the test with S. aureus ATCC 13709 (setting [2]) was 25 to 50 mM (≈ 18000 to 36000 µg/mL); in the test with E. coli ATCC 25922 (setting [3]), 6 to 13 mM (≈ 4320 to 9360 µg/mL).
On the same counts, the results for `CN(C)CCCOc1ccc(C(NC(=O)c2ccc(-c3cccc(NC(=O)c4ccc(-c5cccc(Cl)c5)cc4)c3)o2)C(=O)N2CCNCC2)cc1` (centres unmarked) [Compound 48] are 13 to 25 mM (≈ 9360 to 18000 µg/mL) and 13 to 25 mM (≈ 9360 to 18000 µg/mL).
With `CN(C)CCCOc1ccc(C(NC(=O)c2ccc(-c3cccc(NC(=O)c4ccc(-c5cc(Cl)cc(Cl)c5)cc4)c3)o2)C(=O)N2CCNCC2)cc1` (centres unmarked) [Compound 49], the MIC in the test with S. aureus ATCC 13709 (setting [2]) and with E. coli ATCC 25922 (setting [3]) was above 100 mM throughout.
